For this data set, the system named is endogenous BMP-2. Description: CRISPR activation of endogenous BMP-2, qPCR in transfected HEK-293T cells. The class given is cell-based, human. Conditions: qPCR 24 hours after transfection with constitutively-expressed dCas9-VPR, normalized to HPRT. How it is done: HEK-293T cells were transfected with constitutively-expressed dCas9-VPR (Addgene #63798) and gRNA-expressing plasmids (Addgene #41824, sequences targeting the 150 bp region of the transcription start site of the endogenous BMP-2 was cloned into the vector; gRNA2 seq: […], gRNA3 seq: […], GFP seq:). After 24 hours, BMP-2 induction was measured by qPCR, following manufacturer protocols. Groups of HEK-293T cells tested were: Untransfected (UT), dCas9-VPR (VPR), GFP, gRNA2, and gRNA3. All groups were normalized to Hypoxanthine-guanine phosphoribosyltransferase (HPRT) expression (FIG. 27). Untransfected, dCas9-VPR, gRNA2, and gRNA3 groups were compared to GFP to elucidate increase in expression levels (FIG. 28).

On to “gRNA2: gRNA-expressing plasmid targeting the 150 bp region of the transcription start site of endogenous BMP-2; seq GGCGAGCCGCGCCGCGAAGG (expressed from plasmid)”, for which the “induction of endogenous BMP-2 expression compared to GFP group” value came out at 112 fold.

“gRNA3: gRNA-expressing plasmid targeting the 150 bp region of the transcription start site of endogenous BMP-2; seq GCTCGCCGGGGATCCCCGAG (expressed from plasmid)”: the “induction of endogenous BMP-2 expression compared to GFP group” value stood at 77 fold.
